“Also recorded” adds a separate entry of the source. Ends that are not written are not given here.
How the values were obtained:
[1] = test system: MDA-MB-453, MCF-7 and NeuTL breast cancer cells; test: ATP bioluminescence assay; type: cell-based, human; murine; details: 6 or 24 h; normoxia or hypoxia
Description: (§1) Cell culture and treatment. […] Cells were cultured in DMEM with 10% FCS, 100 U/ml penicillin and 100 μg/ml streptomycin at 37° C. in a humidified atmosphere of 5% CO2. Mitochondrial complex I-deficient (Breen and Scheffler 1979; DeFrancesco et al 1976; Scheffler et al 2004) and complex II-deficient cells (Albayrak et al 2003; Oostveen et al 1995) were grown in DMEM with 10% FCS, […] glucose and non-essential amino acids.
(§2) At approximately 70% confluency, cells were treated with up to 50 μM α-TOS (Sigma), up to 100 μM 3-BP (Aldrich) or 30 ng/ml of human recombinant tumor necrosis factor-related apoptosis—inducing ligand (TRAIL) (Weber et al, 2002) under normoxic or hypoxic conditions. For hypoxia, cells overlaid with nitrogen-purged medium were placed in a hypoxic chamber pre-flushed extensively with nitrogen. The hypoxic chamber with cells was then placed in the incubator as required. α-TOS was dissolved in ethanol and used such that the final ethanol concentration in cell culture medium was <0.1% (v/v). Stock solutions of 3-BP were prepared in PBS prior to use.
ATP measurement. MDA-MB-453 and NeuTL cells were seeded at 2×10^5 per ml and MCF-7 cells at 1.2×10^5 per ml into 96-well tissue culture microtitre plates and allowed to recover overnight before use. Cells were incubated for 6 or 24 h with α-TOS or 3-BP under normoxia or hypoxia as described above. ATP levels were then measured using an ATP bioluminescence assay kit HSII (Roche Applied Science) according to the manufacturer's instructions. Briefly, control or treated cells were transferred into black microtitre plates after incubation for 5 min at room temperature with the cell lysis reagent. Luciferase reagent was added and the signal detected immediately using a Fluorostar Optima plate reader (BMG Labtech). Triplicate wells were read for each condition and data evaluated using a standard calibration curve prepared with known concentrations of ATP.

[2] = test system: MDA-MB-453 cells; test: Apoptosis, annexin V-FITC method; type: cell-based, human; details: for apoptosis: MDA-MB-453 (erbB2-high), normoxia or hypoxia; for apoptosis after Akt1 knock-down: pre-treated with 60 pM Akt1 siRNA for 24 h, then drug 24 h
Description: as §1, §2
Apoptosis assessment. Apoptosis was quantified using the annexin V-FITC method, which detects phosphatidyl serine externalized in the early phases of apoptosis (Boersma et al, 1996). Briefly, cells were plated at 10^5 per well in 24-well plates and, after an overnight recuperation, treated with α-TOS or 3-BP alone or in combination. Floating and attached cells were harvested, washed with PBS, resuspended in 0.2 ml binding buffer (10 mM Hepes, 140 mM NaCl, 5 mM CaCl2, pH 7.4), incubated for 30 min at 4° C. with 2 μl annexin V-FITC (PharMingen), supplemented with 200 μl of 50 μg/ml propidium iodide (PI; Sigma), and analyzed by flow cytometry (FACScalibur, Becton Dickinson) using channel 1 for annexin V-FITC binding and channel 2 for PI staining. Cell death was quantified as the percentage of cells with increased annexin V binding and PI staining.
RNA interference (RNAi). Short-interfering RNA (siRNA) oligonucleotides with 3′-dTdT overhangs specific for Akt1 were synthesized by Qiagen. The sequences are as follows: target sequence: […] (SEQ ID NO 2); siRNA duplex sequences: sense—r([…] )dTdT (SEQ ID NO 3), antisense—r([…] )dTdT (SEQ ID NO 4). The transfection of cultured MDA-MB-453 cells with siRNA was performed using OligofectAmine (Invitrogen) and OptiMEM according to the manufacturer's instructions. Briefly, cells were allowed to reach 50% confluency and supplemented with […] siRNA pre-incubated with OligofectAmine and overlayed with OptiMEM. Cells were washed 24 h later with PBS, overlayed with complete DMEM and treated as required after an additional 24 h.
Transfection of MDA-MB-453 cells with siRNAs was performed using OligofectAmine and OptiMEM. Briefly, cells were allowed to reach ˜50% confluency and supplemented with 60 pmol/l siRNA pre-incubated with OligofectAmine and overlayed with OptiMEM. Cells were washed 24 h later with PBS, overlaid with complete DMEM, cultured for an additional 24 h, 48 h and transgene expression confirmed using Western blotting before they were used for further experiments.

[3] = test system: MCF-7 cells; test: Apoptosis, annexin V-FITC method; type: cell-based, human; details: MCF-7 (erbB2-low); 24 h; normoxia or hypoxia
Description: as §1, §2
Apoptosis assessment. Apoptosis was quantified using the annexin V-FITC method, which detects phosphatidyl serine externalized in the early phases of apoptosis (Boersma et al, 1996). Briefly, cells were plated at 10^5 per well in 24-well plates and, after an overnight recuperation, treated with α-TOS or 3-BP alone or in combination. Floating and attached cells were harvested, washed with PBS, resuspended in 0.2 ml binding buffer (10 mM Hepes, 140 mM NaCl, 5 mM CaCl2, pH 7.4), incubated for 30 min at 4° C. with 2 μl annexin V-FITC (PharMingen), supplemented with 200 μl of 50 μg/ml propidium iodide (PI; Sigma), and analyzed by flow cytometry (FACScalibur, Becton Dickinson) using channel 1 for annexin V-FITC binding and channel 2 for PI staining. Cell death was quantified as the percentage of cells with increased annexin V binding and PI staining. […]

[4] = molecular target: T1, complex II/SDH-dependent activity in NeuTL cells (Mus musculus, UniProt Q8K2B3+Q9CQA3+Q9CXV1+Q9CZB0); test: MTT reduction assay of complex II/SDH activity in whole cells; type: cell-based, murine; details: for inhibition of MTT reduction after MitoQ pre-incubation: cells pre-incubated 1 h with MitoQ; for enzymatic reduction of MTT: within a few hours of treatment
T1 construct: For specifically measuring complex II activity in whole cells; endogenous in cells; host or cells: NeuTL murine breast cancer cells
T1 sequence (Q8K2B3 43-664): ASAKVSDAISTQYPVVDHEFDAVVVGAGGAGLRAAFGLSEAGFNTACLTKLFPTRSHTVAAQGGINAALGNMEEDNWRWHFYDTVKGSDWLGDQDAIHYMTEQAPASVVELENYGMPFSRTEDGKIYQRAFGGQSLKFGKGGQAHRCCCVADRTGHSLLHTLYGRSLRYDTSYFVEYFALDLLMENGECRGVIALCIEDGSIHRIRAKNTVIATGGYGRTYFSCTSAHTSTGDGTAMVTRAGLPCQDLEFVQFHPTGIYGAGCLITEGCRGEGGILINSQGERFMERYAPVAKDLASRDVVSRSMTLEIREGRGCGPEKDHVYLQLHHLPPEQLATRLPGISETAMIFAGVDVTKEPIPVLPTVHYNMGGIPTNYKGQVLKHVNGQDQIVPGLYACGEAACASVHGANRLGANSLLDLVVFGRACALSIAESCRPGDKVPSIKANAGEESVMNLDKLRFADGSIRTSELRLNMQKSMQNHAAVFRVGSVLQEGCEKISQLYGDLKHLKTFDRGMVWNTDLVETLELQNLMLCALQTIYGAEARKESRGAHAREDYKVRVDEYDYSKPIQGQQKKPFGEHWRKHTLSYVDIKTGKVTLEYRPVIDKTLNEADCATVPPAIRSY
T1 sequence (Q9CQA3 31-282): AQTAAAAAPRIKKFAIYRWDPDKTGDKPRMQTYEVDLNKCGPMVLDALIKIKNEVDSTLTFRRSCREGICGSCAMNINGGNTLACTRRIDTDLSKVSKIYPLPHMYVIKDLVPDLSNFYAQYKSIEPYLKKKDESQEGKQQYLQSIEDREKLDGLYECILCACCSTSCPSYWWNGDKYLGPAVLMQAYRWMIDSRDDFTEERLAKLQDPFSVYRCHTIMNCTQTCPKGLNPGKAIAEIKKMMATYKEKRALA
T1 sequence (Q9CZB0 30-169): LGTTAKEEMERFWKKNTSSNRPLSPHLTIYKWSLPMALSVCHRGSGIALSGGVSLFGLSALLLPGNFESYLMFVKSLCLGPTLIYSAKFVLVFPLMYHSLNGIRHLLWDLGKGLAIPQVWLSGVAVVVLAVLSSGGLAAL
T1 sequence (Q9CXV1 57-159): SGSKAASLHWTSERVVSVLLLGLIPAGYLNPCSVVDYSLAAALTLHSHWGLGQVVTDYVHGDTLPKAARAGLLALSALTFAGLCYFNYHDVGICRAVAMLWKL
Description: MTT assay. MTT solutions were prepared immediately before use by dissolving 2.5 mg/ml 3-(4,5-dimethyl[…] (MTT) (Sigma) in PBS alone or phenol red-free RPMI medium containing 20 mM succinic acid, pH 7.4. Stock solutions of 3-nitropropionic acid (3NPA) in ethanol, thenoyltrifluoroacetone (TTFA) in DMSO, 3-BP in PBS, α-TOS in DMSO, and MitoQ (Alleva et al, 2003, James et al, 2005) in ethanol were prepared. The drugs were tested on NeuTL cells cultured in exponential growth phase in 96-well microtitre plates using 4-8 replicate wells per dilution assayed. To assess the ability of MitoQ to restore MTT reduction, cells were pre-incubated for 60 min with 2 or 5 μM MitoQ. Final concentrations of ethanol or DMSO in cultures were ≦0.1%. Treated and control cells were allowed to reduce MTT to blue formazan crystals for 2 or 4 h at 37° C. and 5% CO2. After incubation, culture supernatants were removed except for 30 μl, before the formazan crystals were solubilized by addition of 150 μl DMSO, and absorbance values were measured at 570 nm using a Fluorostar Optima plate reader.
To this end, the present inventors investigated whether α-TOS interferes with UbQ binding in complex II. For specifically measuring complex II activity in whole cells, a short-term (1-2 h) assay was used based on the reduction of the tetrazolium salt, MTT (Maehara et al, 1988). […] For this, oxidative respiration of murine NeuTL breast cancer cells was sustained on high levels of succinate (20 mM), thereby promoting the SDH activity of complex II (Maehara et al, 1988). The cells were then assayed within 1-2 h for their ability to enzymatically reduce MTT, which under conditions of high succinate becomes a specific indicator of complex II/SDH-dependent activity (Maehara et al, 1988, Berridge and Tan, 1993).

[5] = test system: erbB2 highly positive breast carcinomas; details: α-TOS 10 μmoles i.p. every 3 d; 3-BP 0.2 μmoles daily intratumorally
Description: (A) Nude mice were inoculated with MCF-7 cells and, after tumors became established, the animals were treated once every 3 d with 10 μmoles per mouse of α-TOS dissolved in DMSO or with DMSO alone, by intraperitoneal (i.p.) injection. Tumor size was measured using calipers and was correlated to the size of the carcinomas at the onset of the therapy. Four animals were used in each group. The results shown are mean values±S.E. The symbol ‘*’ denotes significant difference (p<0.05). (B) Female FVB/N erbB2 mice with palpable tumors (see General Materials and Methods) received either 10 μmoles α-TOS solubilized in corn oil/4% ethanol (n=11) or the corn oil/4% ethanol alone (control, n=9) by i.p. injection once every 3 d, or 0.2 μmoles 3-BP (n=8) in PBS at the tumor site every day. Tumor size was recorded using calipers. Two independent experiments were conducted. Results are represented as mean values±S.E. The symbol ‘*’ denotes significant difference (p<0.05) in the analysis of variance between the 3-BP and α-TOS curves.
Mouse tumor experiments. Nude mice were inoculated subcutaneously with MCF-7 cells (2×10^6 cells/mouse). After tumors developed (diameter of 3-7 mm), mice were injected intraperitoneally with 10 μmoles α-TOS in DMSO every 3 days. Control mice were injected with an equal volume (100 μl) of DMSO only. Tumor size was estimated by measuring with digital calipers. A colony of transgenic FVB/N2O2 rat c-neu mice carrying the rat HER-2/neu protooncogene driven by the MMTV promoter on the H-2^q FVB/N background (Guy et al, 1992) was established at the Griffith University Animal Facility and maintained under strict inbreeding conditions. The presence of the transgene was routinely confirmed by PCR. Approximately 70% of the female mice developed spontaneous mammary carcinomas with a mean latency time of 10 months. Female transgenic FVB/N2O2 rat c-neu mice bearing progressively growing tumors with a mean diameter of 10±5 mm were randomly assigned to control or treatment groups. Tumor size was measured using digital calipers. […]

[6] = test system: B16-F1/nude mice; details: Kogure et al, 2005; cited from earlier work
[7] = test system: Jurkat; details: cited from earlier work
[8] = test system: A549; details: cited from earlier work
[9] = test system: C1271; details: Kogure et al, 2004; cited from earlier work
[10] = test system: NB4, HT93; details: cited from earlier work
[11] = test system: retinoic acid receptors (RARs); details: reporter constructs; cited from earlier work
[12] = test system: Jurkat, HVT11, MCF7, MCF7-C3, U937, Meso-2; details: cited from earlier work
[13] = test system: all cells; details: Zhang et al, 2001b; cited from earlier work
[14] = test system: breast carcinomas with high erbB2 expression; test: Breast carcinomas in FVB/N2O2 c-neu mice, ultrasound imaging; type: in vivo
Description: FIG. 11. Peptide conjugate LTVSPWY-α-TOS (SEQ ID NO 1) suppresses breast carcinomas. FVB/N2O2 c-neu female mice of >7 months of age with breast carcinomas, as detected by ultrasound imaging (USI), were treated by intraperitoneal injection of the vehicle or 5 μmol per mouse per dose of LTVSPWY-α-TOS (SEQ ID NO 1) solubilised in corn oil/ethanol (100:5, v/v) at times shown. The tumours were visualised and quantified using USI and are expressed relative to their volume at the onset of the treatment (A). […] The volume was […] at the onset of the experiment for both tumors. Data shown are mean values±SD (n=4-6) and the USI images are representative of tumours from each group.
This example describes the targeting of an α-TOS pro-drug to cancer cells over-expressing the receptor tyrosine kinase erbB2. An adduct of α-TOS was linked to the heptapeptide LTVSPWY (SEQ ID NO 1), which peptide is known for targeting cancer cells over-expressing erbB2. […] In fact, there was an unexpected 90% relative reduction in size of treated tumors compared to the untreated control.

## O=C(O)C(=O)CBr [Compound 3-BP, 3-bromopyruvate, reference compound]
[1]
  cellular ATP levels: more potent inhibitors than α-TOS
[2]
  apoptosis: strikingly resistant to killing by 3-BP, even with concentrations as high as 100 μM
  apoptosis after Akt1 knock-down: particularly marked increase in cytotoxic responsiveness; also recorded: sensitizes
[3]
  apoptosis: more sensitive to killing by 3-BP under hypoxia than normoxia
[4]; absence of added succinate, 4 h
  complex II-mediated MTT reduction: potent inhibitors of the complex II-mediated MTT reduction
[4]
  inhibition of MTT reduction after MitoQ pre-incubation: not significantly different
  enzymatic reduction of MTT: significant decreases occurring in the levels of MTT reduction
[5]
  tumor growth: either growth arrest or partial regression

## Cc1c(C)c2c(c(C)c1OC(=O)C(=O)O)CCC(C)(CCCC(C)CCCC(C)CCCC(C)C)O2 (centres unmarked) [Compound 10]
[6]
  cytotoxicity in mice inoculated with B16-F1 melanoma cells: non-selective cytotoxicity

## Cc1c(C)c2c(c(C)c1OC(=O)CC(=O)O)CCC(C)(CCCC(C)CCCC(C)CCCC(C)C)O2 (centres unmarked) [Compound 11]
[6]
  cytotoxicity in mice inoculated with B16-F1 melanoma cells: non-selective cytotoxicity

## COc1c(C)c(C)c2c(c1C)CCC(C)(CCCC(C)CCCC(C)CCCC(C)C)O2 (centres unmarked) [Compound 18]
[7]
  pro-apoptotic activity: inactive

## CCC(=O)Oc1c(C)c(C)c2c(c1C)CCC(C)(CCCC(C)CCCC(C)CCCC(C)C)O2 (centres unmarked) [Compound 19]
[8]
  pro-apoptotic activity: inactive

## Cc1c(C)c2c(c(C)c1OC(=O)CCCCCC(=O)O)CCC(C)(CCCC(C)CCCC(C)CCCC(C)C)O2 (centres unmarked) [Compound 24]
[9]
  pro-apoptotic activity: no activity at all

## CCOC(=O)CCC(=O)Oc1c(C)c(C)c2c(c1C)CCC(C)(CCCC(C)CCCC(C)CCCC(C)C)O2 (centres unmarked) [Compound 25]
[9]
  pro-apoptotic activity: without pro-apoptotic activity

## CC(C=CC1=C(C)CCCC1(C)C)=CC=CC(C)=CC(=O)Oc1c(C)c(C)c2c(c1C)CCC(C)(CCCC(C)CCCC(C)CCCC(C)C)O2 (centres unmarked) [Compound 28]
[10]
  IC50: 100 to 1000 nM
[11]
  agonism at retinoic acid receptors: acted as agonists for retinoic acid receptors (RARs)

## CC(C=CC1=C(C)CCCC1(C)C)=CC=CC(C)=CC(=O)Oc1c(C)c(C)c2c(c1C)CCC(C)(CCCC(C)CCCC(C)CCCC(C)C)O2 (centres unmarked) [Compound 29]
[11]
  agonism at retinoic acid receptors: acted as agonists for retinoic acid receptors (RARs)

## Cc1cc(OC(=O)CCC(=O)O)c(C)c2c1OC(C)(CCCC(C)CCCC(C)CCCC(C)C)CC2 (centres unmarked) [Compound 32]
[12]
  IC50, relative to α-TOS: 50% of α-TOS

## O=C(CC(=O)C(F)(F)F)c1cccs1 [TTFA, 4,4,4-trifluoro-1-(2-thienyl)-1,3-butanedione]
[4]
  inhibition of MTT reduction after MitoQ pre-incubation: significantly overcome by pre-incubation of the cells with MitoQ
  enzymatic reduction of MTT: significantly inhibited the enzymatic reduction of MTT
[13]
  toxicity to cells: toxic to all cells

## LTVSPWY-α-TOS: adduct of α-TOS linked to the heptapeptide LTVSPWY (SEQ ID NO 1) (also: α-tocopheryl succinate adduct, attachment site not given here)
[14]; day 15, 5 μmol per dose per mouse i.p., representative tumour, volume −40 mm^3 at onset
  tumour volume: 34.8 mm^3
[14]; mouse, in vivo
  relative reduction in size of treated tumors compared to the untreated control: 90%

B1: TRAIL: human recombinant tumor necrosis factor-related apoptosis—inducing ligand (protein, UniProt P50591 1-281, looked up)
Tumor necrosis factor ligand …: MAMMEVQGGPSLGQTCVLIVIFTVLLQSLCVAVTYVYFTNELKQMQDKYSKSGIACFLKEDDSYWDPNDEESMNSPCWQVKWQLRQLVRKMILRTSEETISTVQEKQQNISPLVRERGPQRVAAHITGTRGRSNTLSSPNSKNEKALGRKINSWESSRSGHSFLSNLHLRNGELVIHEKGFYYIYSQTYFRFQEEIKENTKNDKQMVQYIYKYTSYPDPILLMKSARNSCWSKDAEYGLYSIYQGGIFELKENDRIFVSVTNEHLIDMDHEASFFGAFLVG
[1]
  cellular ATP levels: more potent inhibitors than α-TOS
[2]
  apoptosis: much more resistant to apoptosis
  apoptosis after Akt1 knock-down: sensitizes
